Measured values from patent US10526323B2, “Indazole and azaindazole substituted compounds as mGluR4 allosteric potentiators, compositions, and methods of treating neurological dysfunction” (Vanderbilt University, priority 2015, dated 2020).

Biological target: mGluR4 (UniProt Q14833)
Assay: mGluR4 potentiation assay: increase in response to an EC20 concentration of agonist (species not given)
Format: cell-based
Conditions: EC50 for potentiation of mGluR4; table does not state human or rat
Summary of the method: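 Human mGluR4 was expressed in CHO cells read with a Ca2+-sensitive dye; rat mGluR4 was co-expressed with GIRK in […] read by thallium flux. Potentiation is the rise over agonist-alone response, with EC50 and maximal potentiation from non-linear fits.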

Structure (SMILES)	EC50 [nM]
Cc1nn(C)c2ccc(Nc3n[nH]c4nccnc34)cc12 [Example 99, N-(1,3-dimethyl-1H-indazol-5-yl)-1H-pyrazolo[3,4-b]pyrazin-3-amine]	757
Cc1c2cc(Nc3n[nH]c4cccnc34)ccc2nn1C(C)(C)C [Example 98, N-(2-(tert-butyl)-3-methyl-2H-indazol-5-yl)-1H-pyrazolo[4,3-b]pyridin-3-amine]	> 10000
Cc1cc(Cn2nc(C)c3cc(Nc4n[nH]c5ncccc45)ccc32)no1 [Example 77, N-(3-methyl-1-((5-methylisoxazol-3-yl)methyl)-1H-indazol-5-yl)-1H-pyrazolo[3,4-b]pyridin-3-amine]	157
Cc1nn(CC(F)(F)F)c2ncc(Nc3n[nH]c4cccnc34)cc12 [Example 253, 3-methyl-N-(1H-pyrazolo[4,3-b]pyridin-3-yl)-1-(2,2,2-trifluoroethyl)pyrazolo[3,4-b]pyridin-5-amine]	240
Cc1ccccc1Cc1nn(C)c2cc(Nc3n[nH]c4nccnc34)ccc12 [Example 49, N-(1-methyl-3-(2-methylbenzyl)-1H-indazol-6-yl)-1H-pyrazolo[3,4-b]pyrazin-3-amine]	4600
Cc1nn(CC2CCC2)c2ccc(Nc3n[nH]c4nccnc34)cc12 [Example 73, N-(1-(cyclobutylmethyl)-3-methyl-1H-indazol-5-yl)-1H-pyrazolo[3,4-b]pyrazin-3-amine]	186
Cc1nn(C2CCOCC2)c2ccc(Nc3n[nH]c4cccnc34)cc12 [Example 117, N-(3-methyl-1-(tetrahydro-2H-pyran-4-yl)-1H-indazol-5-yl)-1H-pyrazolo[4,3-b]pyridin-3-amine]	1460
c1cnc2c(Nc3ccc4c(cnn4CC4CCC4)c3)n[nH]c2n1 [Example 85, N-(1-(cyclobutylmethyl)-1H-indazol-5-yl)-1H-pyrazolo[3,4-b]pyrazin-3-amine]	57
CCCn1nc(C)c2cc(Nc3n[nH]c4nccnc34)ccc21 [Example 131, N-(3-methyl-1-propyl-1H-indazol-5-yl)-1H-pyrazolo[3,4-b]pyrazin-3-amine]	107
CC(C)CC1CC(=O)N(c2nn(C)c3cc(Nc4n[nH]c5cccnc45)ccc23)C1 (centres unmarked) [Example 36, N-(6-((1H-pyrazolo[4,3-b]pyridin-3-yl)amino)-1-methyl-1H-indazol-3-yl)-4-isobutylpyrrolidin-2-one]	526

Next, values leading:

EC50 [nM]	Structure (SMILES)
263	COC(=O)CCCNc1nn(C)c2cc(Nc3n[nH]c4cccnc34)ccc12 [Example 38, methyl 4-((6-((1H-pyrazolo[4,3-b]pyridin-3-yl)amino)-1-methyl-1H-indazol-3-yl)amino)butanoate]
63	Cc1cc(Cn2nc(C)c3cc(Nc4n[nH]c5cccnc45)ccc32)on1 [Example 130, N-(3-methyl-1-((3-methylisoxazol-5-yl)methyl)-1H-indazol-5-yl)-1H-pyrazolo[4,3-b]pyridin-3-amine]
68	Cn1nc(C2(C)CC2)c2ccc(Nc3n[nH]c4cccnc34)cc21 [Example 28, N-(1-methyl-3-(1-methylcyclopropyl)-1H-indazol-6-yl)-1H-pyrazolo[4,3-b]pyridin-3-amine]
295	Cc1nn(CC(C)(C)C)c2ccc(Nc3n[nH]c4cccnc34)cc12 [Example 119, N-(3-methyl-1-neopentyl-1H-indazol-5-yl)-1H-pyrazolo[4,3-b]pyridin-3-amine]
> 10000	c1cc2c(cnn2CC2CCC2)cc1Nc1n[nH]c2c1CCCC2 [Example 81, 1-(cyclobutylmethyl)-N-(4,5,6,7-tetrahydro-1H-indazol-3-yl)-1H-indazol-5-amine]
> 10000	Cc1ccc(-n2nc(C)c3cc(Nc4n[nH]c5cccnc45)ccc32)cc1 [Example 93, N-(3-methyl-1-(p-tolyl)-1H-indazol-5-yl)-1H-pyrazolo[4,3-b]pyridin-3-amine]
315	Cn1cc2cc(Nc3n[nH]c4cccnc34)ccc2n1 [Example 56, N-(2-methyl-2H-indazol-5-yl)-1H-pyrazolo[4,3-b]pyridin-3-amine]
